Results on 28 compounds are retold here after patent US8178688B2, “Benzamidine derivatives, process for the preparation thereof and pharmaceutical composition comprising the same” (Dong Wha Pharmaceutical Co., Ltd., priority 2004, dated 2012).

Each structure is given as a SMILES string.

The subject of one test is osteoclast differentiation. The test can be described thus: Inhibitory effects on osteoclast differentiation (co-culture of bone marrow cells with osteoblast, TRAP staining). The test is classed as cell-based, mice. To be noted: Mus musculus, Osteoclast, 168 h, read-out: % inhibitory activity on osteoclastogenesis. The method, then:
The effect of benzamidine derivatives of the present invention on osteoclast proliferation and differentiation process was evaluated via co-culture with osteoblast.
Tibia and Femora were aseptically ectomized from male ddY mice of 6-8 weeks to harvest bone marrow cells by using a syringe (21G, Korea Green Cross).
The bone marrow cells were suspended in 5 mL α-MEM medium (Gibco BRL Co.) containing sodium bicarbonate (2.0 g/L), streptomycin (100 mg/L) and penicillin ([…]). The harvested cells were centrifuged at 600×g for 5 mins to collect the whole quantity. To remove the red blood cells within bone marrow cells, 3 mL of Tris HCl (0.83% NH4Cl, pH7.5) was added and well mixed. After centrifuging above cells, the numbers of bone marrow cells were counted and then, the bone marrow cells were immediately used for co-culture system with osteoblast.
The calvaria were aseptically ectomized from neonate ICR mice of 1˜2 days, washed with PBS solution and incubated with a mixture of enzyme solution (0.2% collagenase and 0.1% dispase) at 37° C. gentle shaker. This procedure was sequentially repeated (10, 10, 10, 20, 20 and 20 mins), and then the calvaria cells having the characteristics of osteoblast mostly released from III-VI digestion groups were collected and washed with the medium (serum-free α-MEM). The washed cells were cultivated in α-MEM medium containing 10% FBS for 2˜3 days. After subculturing, these cells were used for this experiment, and diluted to reach the concentration of 1×10^6 cell/mL for storage at −70° C.
Benzamidine derivatives of the present invention were dissolved in a sterile distilled water or ethanol to make desired concentrations following dilution. The final volume of specimen added to the medium was determined at the ratio of 1:1000.
Bone marrow cells prepared, in the above and osteoblast from calvaria were co-cultured for osteoclast differentiation. Both bone marrow cells (25,000 cells/cm^2) and osteoblast (10,000 cells/cm^2) were plated on a 96 well plate in α-MEM medium containing FBS with specimen, and then cultured with test materials for 7 days. Differentiation factors, such as dexamethasone (10^−7M) and vitamin D3 (10^−8M), were also continuously added to the medium from the first day of cultivation. The medium was changed with fresh media containing a mixture of specimens and differentiation factors every 2˜3 day.
TRAP was used as a marker to measure osteoclast in consideration of its characteristics showing a positive reaction to TRAP staining solution. TRAP staining solution was prepared in a manner that 5 mg of naphtol AS-MS phosphate (sigma N-4875), a substrate and 25 mg of coloring agent (Fast Red Violet LB salt) were dissolved in N,N-dimethylformamide (about 0.5 mL), 0.1N NaHCO3 buffer solution (50 mL) containing 50 mM tartaric acid was added, and the reaction mixture was stored at refrigerator prior to use.
After culturing the cells for 7 days, the medium was removed from the wells, the cells were once washed with PBS solution and fixed to PBS containing 10% formalin for 2˜5 mins. The cells were fixed again in a mixed solution of ethanol and acetone (1/1) for about 1 min, and dried off. The cells were further treated by TRAP staining solution for 15 mins and washed with PBS. The experimental results were measured by counting the number of osteoclasts with 3 or more nuclei showing TRAP-positive reaction under a microscopic examination. Each of tests was confirmed over three times for gaining more reliable data.
As shown in the following table 7, the inhibitory effect of each experimental group on the differentiation of osteoclast versus controls was expressed by inhibitory percentage value.
`CCCN1CCC(c2nc(-c3ccc(OCCCCCOc4ccc(C(=N)NO)cc4)cc3)c(CC3CCCC3)s2)CC1` [Example 68, N-hydroxy-4-(5-[4-(5-cyclopentylmethyl-2-(1-propyl-piperidin-4-yl)-1,3-thiazol-4-yl)phenoxy]pentoxy)-benzamidine]: the inhibition at 1 µM came to 83%.

As for `CCCN1CCC(c2nc(-c3ccc(OCCCCCOc4ccc(C(=N)NO)cc4)cc3)c(C)s2)CC1` [Example 72, N-hydroxy-4-(5-[4-(5-methyl-2-(1-propyl-piperidin-4-yl)-1,3-thiazol-4-yl)phenoxy]pentoxy)-benzamidine], the inhibition at 1 µM worked out at 67.9%.

With `CC(C)c1sc(C2CCCNC2)nc1-c1ccc(OCCCCCOc2ccc(C(=N)NO)cc2)cc1` (stereo not shown) [Example 83, N-hydroxy-4-(5-[4-(5-isopropyl-2-(piperidin-3-yl)-1,3-thiazol-4-yl)phenoxy]pentoxy)-benzamidine], the inhibition at 1 µM was 23.8%.

The same test, now with this note: Mus musculus, Osteoclast, 168 h; 1 m; co-culture of bone marrow cells and osteoblast, 7 days, TRAP-positive osteoclasts versus controls; read-out: % inhibitory activity on osteoclastogenesis.
For the compound `CCCCc1sc(NC(=N)N)nc1-c1ccc(OCCCCCOc2ccc(C(=N)NO)cc2)cc1` [Example 64, N-hydroxy-4-(5-[4-(5-butyl-2-guanidino-1,3-thiazol-4-yl)phenoxy]pentoxy)-benzamidine], the inhibition at 1 µM amounted to 43.7%.

For `N=C(NO)c1ccc(OCCCCCOc2ccc(-c3nc(N)sc3Cc3ccccc3)cc2)cc1` [Example 65, N-hydroxy-4-(5-[4-(2-amino-5-benzyl-1,3-thiazol-4-yl)phenoxy]pentoxy)-benzamidine], the inhibition at 1 µM was 46%.

In the case of `N=C(N)Nc1nc(-c2ccc(OCCCCCOc3ccc(C(=N)NO)cc3)cc2)c(Cc2ccccc2)s1` [Example 66, N-hydroxy-4-(5-[4-(5-benzyl-2-guanidino-1,3-thiazol-4-yl)phenoxy]pentoxy)-benzamidine], the inhibition at 1 µM is 38.5%.

With `Cc1sc(NC(=O)C(C)C)nc1-c1ccc(OCCCCCOc2ccc(C(=N)NO)cc2)cc1` [Example 69, N-hydroxy-4-(5-[4-(2-(isobutyryl)amino-5-methyl-1,3-thiazol-4-yl)phenoxy]pentoxy)-benzamidine], the inhibition at 1 µM was determined as 99.6%.

On to `CC(C)c1sc(CN2CCOCC2)nc1-c1ccc(OCCCCCOc2ccc(C(=N)NO)cc2)cc1` [Example 70, N-hydroxy-4-(5-[4-(5-isopropyl-2-morpholinomethyl-1,3-thiazol-4-yl)phenoxy]pentoxy)-benzamidine], for which the inhibition at 1 µM stood at 32.7%.

As to `CC(C)c1sc(CN)nc1-c1ccc(OCCCCCOc2ccc(C(=N)NO)cc2)cc1` [Example 73, N-hydroxy-4-(5-[4-(5-isopropyl-2-aminomethyl-1,3-thiazol-4-yl)phenoxy]pentoxy)-benzamidine], the inhibition at 1 µM was 54.2%.

Consider `C=Cc1sc(C)nc1-c1ccc(OCCCCCOc2ccc(C(=N)NO)cc2)cc1` [Example 74, N-hydroxy-4-(5-[4-(5-vinyl-2-methyl-1,3-thiazol-4-yl)phenoxy]pentoxy)-benzamidine], for which the inhibition at 1 µM is 92.6%.

`Cc1nc(-c2ccc(OCCCCCOc3ccc(C(=N)NO)cc3)cc2)c(CO)s1` [Example 75, N-hydroxy-4-(5-[4-(5-hydroxymethyl-2-methyl-1,3-thiazol-4-yl)phenoxy]pentoxy)-benzamidine]: the inhibition at 1 µM was 40.2%.

Regarding `COCc1sc(C)nc1-c1ccc(OCCCCCOc2ccc(C(=N)NO)cc2)cc1` [Example 76, N-hydroxy-4-(5-[4-(5-methoxymethyl-2-methyl-1,3-thiazol-4-yl)phenoxy]pentoxy)-benzamidine], the inhibition at 1 µM amounted to 99%.

As to `N=C(NO)c1ccc(OCCCCCOc2ccc(-c3nc(N)sc3CCCl)cc2)cc1` [Example 77, N-hydroxy-4-(5-[4-(5-(2-chloroethyl)-2-amino-1,3-thiazol-4-yl)phenoxy]pentoxy)-benzamidine], the inhibition at 1 µM was 83.3%.

`C=Cc1sc(N)nc1-c1ccc(OCCCCCOc2ccc(C(=N)NO)cc2)cc1` [Example 78, N-hydroxy-4-(5-[4-(5-vinyl-2-amino-1,3-thiazol-4-yl)phenoxy]pentoxy)-benzamidine]: the inhibition at 1 µM stood at 97.5%.

With `C=Cc1sc(-c2cccnc2)nc1-c1ccc(OCCCCCOc2ccc(C(=N)NO)cc2)cc1` [Example 79, N-hydroxy-4-(5-[4-(5-vinyl-2-(pyridin-3-yl)-1,3-thiazol-4-yl)phenoxy]pentoxy)-benzamidine], the inhibition at 1 µM is 96.4%.

In the case of `N=C(NO)c1ccc(OCCCCCOc2ccc(-c3nc(-c4cccnc4)sc3CCCl)cc2)cc1` [Example 80, N-hydroxy-4-(5-[4-(5-(2-chloroethyl)-2-(pyridin-3-yl)-1,3-thiazol-4-yl)phenoxy]pentoxy)-benzamidine], the inhibition at 1 µM turned out to be 96.4%.

Regarding `N=C(NO)c1ccc(OCCCCCOc2ccc(-c3nc(N)sc3C3CCCC3)cc2)cc1` [Example 81, N-hydroxy-4-(5-[4-(2-amino-5-cyclopentyl-1,3-thiazol-4-yl)phenoxy]pentoxy)-benzamidine], the inhibition at 1 µM was found to be 29.5%.

On to `CCc1sc(CN)nc1-c1ccc(OCCCCCOc2ccc(C(=N)NO)cc2)cc1` [Example 82, N-hydroxy-4-(5-[4-(5-ethyl-2-aminomethyl-1,3-thiazol-4-yl)phenoxy]pentoxy)-benzamidine], for which the inhibition at 1 µM stood at 8.9%.

Take `CCNc1nc(-c2ccc(OCCCCCOc3ccc(C(=N)NO)cc3)cc2)cs1` [Example 84, N-hydroxy-4-(5-[4-(2-ethylamino-1,3-thiazol-4-yl)phenoxy]pentoxy)-benzamidine]: the inhibition at 1 µM turned out to be 100%.

Still in this test, the particulars now being: Mus musculus, Osteoclast, 168 h; 1 μm; co-culture of bone marrow cells and osteoblast, 7 days, TRAP-positive osteoclasts versus controls; read-out: % inhibitory activity on osteoclastogenesis.
Consider `Cc1nc(-c2ccc(OCCCCCOc3ccc(C(=N)NO)cc3)cc2)c(CC(C)C)s1` [Example 44, N-hydroxy-4-(5-[4-(5-isobutyl-2-methyl-1,3-thiazol-4-yl)phenoxy]pentoxy)-benzamidine], for which the inhibition at 1 µM is 96.6%.

Take `Cc1nc(-c2ccc(OCCCCCOc3ccc(C(=N)N)cc3)cc2)cs1` [Example 52, 4-(5-[4-(2-methyl-1,3-thiazol-4-yl)phenoxy]pentoxy)-benzamidine]: the inhibition at 1 µM amounted to 0%.

Consider `CC(C)c1nc(-c2ccc(OCCCCCOc3ccc(C(=N)N)cc3)cc2)cs1` [Example 53, 4-(5-[4-(2-isopropyl-1,3-thiazol-4-yl)phenoxy]pentoxy)-benzamidine], for which the inhibition at 1 µM was determined as 0%.

Regarding `Cc1nc(-c2ccc(OCCCCCOc3ccc(C(=N)N)cc3)cc2)c(C)s1` [Example 54, 4-(5-[4-(2,5-dimethyl-1,3-thiazol-4-yl)phenoxy]pentoxy)-benzamidine], the inhibition at 1 µM was determined as 94.2%.

In the case of `CCc1sc(C(C)C)nc1-c1ccc(OCCCCCOc2ccc(C(=N)N)cc2)cc1` [Example 55, 4-(5-[4-(5-ethyl-2-isopropyl-1,3-thiazol-4-yl)phenoxy]pentoxy)-benzamidine], the inhibition at 1 µM was 67.8%.

For `CCc1sc(-c2ccccc2)nc1-c1ccc(OCCCCCOc2ccc(C(=N)N)cc2)cc1` [Example 56, 4-(5-[4-(5-ethyl-2-phenyl-1,3-thiazol-4-yl)phenoxy]pentoxy)-benzamidine], the inhibition at 1 µM was determined as 58.7%.

Turning to `CCc1sc(N)nc1-c1ccc(OCCCCCOc2ccc(C(=N)NO)cc2)cc1` [Example 60, N-hydroxy-4-(5-[4-(2-amino-5-ethyl-1,3-thiazol-4-yl)phenoxy]pentoxy)-benzamidine], the inhibition at 1 µM was determined as 28.2%.

For the compound `CC(C)c1sc(N)nc1-c1ccc(OCCCCCOc2ccc(C(=N)NO)cc2)cc1` [Example 61, N-hydroxy-4-(5-[4-(2-amino-5-isopropyl-1,3-thiazol-4-yl)phenoxy]pentoxy)-benzamidine], the inhibition at 1 µM stood at 0%.

Take `CC(C)c1sc(NC(=N)N)nc1-c1ccc(OCCCCCOc2ccc(C(=N)NO)cc2)cc1` [Example 62, N-hydroxy-4-(5-[4-(2-guanidino-5-isopropyl-1,3-thiazol-4-yl)phenoxy]pentoxy)-benzamidine]: the inhibition at 1 µM came out at 19.1%.
